Like-named read-outs stand apart in the source and are kept apart here.
Legend:
[1] = biological target: T1, recombinant human 11β-HSD1 (Homo sapiens, UniProt P28845); test: Human 11β-HSD1 inhibitory activity (HTRF cortisol detection); assay type: biochemical; conditions: recombinant human 11β-HSD1, 200 nM cortisone, 40 μM NADPH, 1 h room temperature
T1 construct: made in house
Protocol: (§1) Test Method 1: Test for Measuring Human 11β-HSD1/11β-HSD2 Inhibitory Activity
(§2) 11β-HSD1 inhibitory activity was measured in the following order. In addition, an enzymatic reaction and assay was performed using a 384-well plate. The enzyme was prepared according to a document (Walker E. A. et al., Journal of Biological Chemistry, 2001, Vol. 276, p. 21343-21350). The reaction was performed in a manner in which various concentrations of test compounds were added to a reaction liquid including a 10 mM a phosphoric acid buffer (pH 6.6), 200 nM cortisone, 40 μM reduced nicotinamide adenine dinucleotide phosphate (NADPH), and recombinant human 11β-HSD1, followed by incubation for an hour at room temperature (10 μl/well). The test compound was dissolved in dimethylsulfoxide (DMSO), and the DMSO concentration was adjusted so as to be 1% in the reaction liquid. After the enzymatic reaction, cortisol was detected using Homogenous Time-Resolved Fluorescence (HTRF) to measure enzyme inhibitory activity. XL-665-labeled cortisol including 400 μM carbenoxolone and a cryptate-labeled cortisol antibody (CIS bio international) were added respectively to the plate at 5 μl/well, followed by incubation for 2 hours at room temperature, and then fluorescence intensity was measured using a fluorospectrometer (trade name: Discovery, manufactured by PerkinElmer Inc.), thereby calculating enzyme inhibitory activity from the ratio of fluorescence intensity between two wavelengths (665 nm/620 nm).
(§3) The results of measurement were calculated by obtaining the average of the values of three wells under the same condition. The ratio obtained when DMSO was added instead of the test compound was regarded as 0%, and the ratio obtained when 11β-HSD1 or 11β-HSD2 was not added was regarded as 100%, whereby a concentration at which the test compound suppresses the enzyme activity by 50% was calculated as IC50 of the inhibitory activity of the compound.

[2] = biological target: T2, recombinant human 11β-HSD2 (Homo sapiens, UniProt P80365); test: Human 11β-HSD2 inhibitory activity (HTRF); assay type: biochemical; conditions: recombinant human 11β-HSD2, 200 nM cortisol, 200 μM NAD, 2 h 37° C.
T2 sequence (P80365 1-405): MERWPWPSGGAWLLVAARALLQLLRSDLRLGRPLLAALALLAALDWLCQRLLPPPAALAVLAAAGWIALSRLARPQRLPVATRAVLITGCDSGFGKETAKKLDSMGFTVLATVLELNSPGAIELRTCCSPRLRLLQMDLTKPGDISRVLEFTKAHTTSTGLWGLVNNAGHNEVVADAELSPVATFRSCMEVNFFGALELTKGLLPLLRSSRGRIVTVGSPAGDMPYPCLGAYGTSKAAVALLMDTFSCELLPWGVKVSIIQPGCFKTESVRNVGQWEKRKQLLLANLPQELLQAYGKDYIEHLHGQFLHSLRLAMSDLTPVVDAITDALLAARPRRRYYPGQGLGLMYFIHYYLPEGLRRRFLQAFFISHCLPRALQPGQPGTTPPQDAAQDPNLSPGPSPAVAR
Protocol: as §1, §2
11β-HSD2 inhibitory activity was measured in the same manner as in the measurement of the 11β-HSD1 inhibitory activity, except for the conditions of the enzymatic reaction. The enzymatic reaction was performed in the manner in which various concentrations of test substances were added to a reaction liquid including 40 mM tris-hydrochloric acid buffer (Tris-HCl) (pH 8.0), 200 nM cortisol, 200 μM nicotinamide adenine dinucleotide (NAD), and recombinant human 11β-HSD2, followed by incubation for 2 hours at 37° C. (10 μl/well).
as §3

[3] = system: spontaneous alternation behavior disorder induced by scopolamine; test: Test for spontaneous alternation behavior disorder induced by scopolamine (Y-maze); assay type: in vivo, male ddY mice; conditions: oral administration, ddY mice, scopolamine 0.5 mg/kg i.p.
Protocol: Test Method 2: Test for Spontaneous Alternation Behavior Disorder Induced by Scopolamine Test drugs were orally administered to 5- to 7-week old male ddY mice. 10 minutes later, scopolamine was intraperitoneally administered to the animals at 0.5 mg/kg. 20 minutes later, the animal was put in Y-maze having arms with the same length and extending in three directions and allowed to freely explore for 8 minutes. During the exploration, spontaneous arm-alternating behavior (entering different arms 3 times consecutively) was counted to calculate the rate of spontaneous alternation (spontaneous alternation behavior/(number of times of entering−2)×100), thereby judging drug efficacy.

[4] = system: spinal nerve ligation model; test: Test for spinal nerve ligation model (von Frey hair test); assay type: in vivo, rats (SD, male); conditions: 1 mg/kg orally, 1 hour before evaluation, threshold of 50% retraction response, pseudo-operation = 100%, solvent = 0%
Protocol: Test Method 3: Test for Spinal Nerve Ligation Model This test was performed according to Pain, 1992, Vol. 50, p 355-363. The skin and muscle in the lumbar region of rats (SD, male, 5- to 6-week old) were excised under pentobarbital anesthesia, and a lumbar L6 transverse process was removed to expose lumbar nerves. L5 and L6 spinal nerves were ligated with a silk thread, and then the wound was sutured. The procedure was performed in the left side. In addition, in the case of pseudo-operation, the wound was sutured without performing nerve ligation. The drug efficacy was evaluated on the postoperative days 7 to 12 by von Frey hair test. The threshold of retraction response was calculated according to Journal of Neuroscience Methods, 1994, Vol. 53, p 55-63. By using 8 types of von Frey filaments (0.41 g to 15.14 g), the sole of the rat's hindlimb was stimulated, and the threshold of 50% retraction response was determined by an up-and-down method. […] The test substance was evaluated by calculating the improvement rate of the test substance-administered group, under the condition that the threshold of the procedure-performed limb of the pseudo-operation animal group was regarded as 100% and the threshold of the procedure-performed limb of the solvent-administered animal group having undergone operation was regarded as 0%.

[5] = system: model with fibromyalgia caused by repeated reserpine administration; test: Test for model with fibromyalgia caused by repeated reserpine administration (muscle tenderness threshold); assay type: in vivo, rats (SD, male); conditions: 10 mg/kg orally, calculated point in time 60 min, healthy rat = 100%, reserpine + solvent = 0%
Protocol: Test Method 4: Test for Model with Fibromyalgia Caused by Repeated Reserpine Administration
This test was performed according to Pain, 2009, Vol. 146, p 26-33., by using rats (SD, male, 7-week old).
The threshold of muscle tenderness was measured according to the method of Schafers et al. (Pain, 2003, Vol. 104, p 579-588). A pressure stimulus slowly increasing up to 250 g was applied to the gastrocnemius muscle of the right lower leg of the rat. […] The measurement was performed 3 times for each point in time, and the average thereof was taken as a measured value.
A solvent (0.5% aqueous acetic acid) or reserpine (1 mg/kg) was subcutaneously administered to the back of the rat once a day for three days. The dose of both the solvent and reserpine administered was 1 mL per 1 kg of the body weight of the animal. 6 days after the beginning of the administration of the solvent or reserpine, the muscle tenderness threshold of each rat was measured, and the rats were grouped such that the difference in the average of threshold between the respective groups was reduced. The drug efficacy evaluation was performed on the next day. […] 30, 60, and 120 minutes after the administration, the muscle tenderness threshold was measured. For healthy rats, the drug was not administered, and only the muscle tenderness threshold was measured. […]

[6] = Pharmacokinetic test (plasma and brain concentration, LC-MS/MS); assay type: in vivo; conditions: male, mouse, po, mice, 1 mg/kg orally, an hour after administration
Protocol: Test Method 5: Pharmacokinetic Test
A 0.5% methyl cellulose suspension including the test substance was orally administered to 5-week old male mice, and the blood and brain were collected after a certain time passed from the administration. The collected blood sample was treated with sodium heparin, and then the plasma was separated, thereby preparing a plasma sample. In addition, a phosphoric acid buffer (pH 7.0) was added to the collected brain sample, in an amount that was 4 times the weight of the brain, thereby preparing 20% brain homogenate. The concentration of the respective test substances in the plasma and brain was measured using LC-MS/MS. An hour after Example 8-1 was administered at 1 mg/kg, the concentration of the substance in the plasma was 153 ng/ml, and the concentration in the brain was 58 ng/ml.

[7] = system: cortisol in the brain homogenate; test: Pharmacokinetic test under cortisone load (brain cortisol by ELISA); assay type: in vivo, male ddY mice; conditions: Mus musculus; ddY mice, 1 mg/kg orally; cortisone 1 mg/kg i.p. after 30 min, brain collected 20 min later; read-out: inhibition rate (cortisol in brain)
Protocol: Test Method 6: Pharmacokinetic Test Under Cortisone Load
A 0.5% methyl cellulose solution or a 0.5% methyl cellulose suspension including the test substance was orally administered to 5-week old male ddY mice. After 30 minutes, cortisone was intraperitoneally administered at 1 mg/kg, and 20 minutes later, the brain was collected. A phosphoric acid buffer (pH 7.0) was added to the collected brain sample, in an amount that was 9 times the weight of the brain, thereby preparing 10% brain homogenate. The quantity of cortisol in the brain homogenate was determined by ELISA, and the inhibition rate resulting from the test substance was calculated, under the condition that the amount of cortisol produced from the mouse orally administered with 0.5% methyl cellulose was regarded as 100%.

T1 sequence (P28845 whole entry): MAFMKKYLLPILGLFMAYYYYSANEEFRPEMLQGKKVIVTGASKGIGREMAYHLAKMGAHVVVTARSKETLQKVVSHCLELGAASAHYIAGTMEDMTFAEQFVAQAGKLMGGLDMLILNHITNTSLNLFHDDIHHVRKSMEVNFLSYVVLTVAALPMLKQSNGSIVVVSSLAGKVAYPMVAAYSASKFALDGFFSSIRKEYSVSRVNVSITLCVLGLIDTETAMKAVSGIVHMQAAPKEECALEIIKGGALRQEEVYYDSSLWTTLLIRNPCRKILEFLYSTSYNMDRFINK

SMILES | IC50 [1] [µM] | IC50 [2] [µM] | also measured
N#Cc1cccc(F)c1-c1ccc(C(=O)N(C2CC2)C2CCc3[nH]ncc3C2)cc1 (single isomer, unassigned; (-)) [Example 7-1, (−)-2′-cyano-N-cyclopropyl-6′-fluoro-N-(4,5,6,7-tetrahydro-1H-indazol-5-yl)biphenyl-4-carboxamide] | 0.018 | > 3 | Dose improving minimum spontaneous alternation rate [3]: 1.0 mg/kg; Improvement rate % (applied dose) [4]: 52 (1 mg/kg) %; Maximum improvement rate % (applied dose) [5]: 82 (10 mg/kg) %
CC(C)Oc1ccc(C(=O)N(C2CC2)C2CCc3[nH]ncc3C2)cc1 (single isomer, unassigned; (-)) [Example 8-1, (−)-N-cyclopropyl-4-isopropoxy-N-(4,5,6,7-tetrahydro-1H-indazol-5-yl)benzamide] | 0.026 | > 30 | Dose improving minimum spontaneous alternation rate [3]: 0.3 mg/kg; Improvement rate % (applied dose) [4]: 73 (1 mg/kg) %; Maximum improvement rate % (applied dose) [5]: 104 (10 mg/kg) %; concentration at 1 h ([6]; plasma, read-out: concentration of the substance in the plasma): 153 ng/mL; concentration at 1 h ([6]; brain homogenate, read-out: concentration in the brain): 58 ng/mL; inhibition at 1 mg/kg [7]: 43%
O=C(c1ccc(-c2ccccc2F)o1)N(C1CC1)C1CCc2[nH]ncc2C1 (stereo not shown) [Example 27] | 0.062 | > 3 | 
Cc1cc(C(=O)N(C2CC2)C2CCc3n[nH]cc3C2)c(C)n1Cc1ccc(F)cc1F (stereo not shown) [Example 30] | 0.028 | > 3 | 
Cn1ccc2c(C(=O)N(C3CC3)C3CCc4[nH]ncc4C3)cccc21 (stereo not shown) [Example 81] | 0.024 | > 30 | 
COc1ccc(C(=O)N(C2CC2)C2CCc3[nH]ncc3C2)c2ccn(C)c12 (stereo not shown) [Example 132] | 0.038 | > 30 | 
CC(F)(F)CCCn1ncc2c(C(=O)N(C3CC3)C3CCc4[nH]ncc4C3)cccc21 (stereo not shown) [Example 159] | 0.04 | > 30 | 
N#Cc1ccccc1-c1ccc(C(=O)N(C2CC2)C2CCc3[nH]ncc3C2)c(F)c1 (stereo not shown) [Example 190] | 0.025 |  | 
CC(C)Cc1ccc(C(=O)N(C2CC2)C2CCc3[nH]ncc3C2)cc1 (stereo not shown) [Example 237] | 0.04 |  | 

Further molecules by falling IC50 [1], results first:

IC50 [1] [µM] | IC50 [2] [µM] | SMILES | also measured
0.088 |  | N#Cc1cc(F)ccc1-c1ccc(C(=O)N(C2CC2)C2CCc3[nH]ncc3C2)cc1 (stereo not shown) [Example 176] | 
0.056 |  | COc1cc(OC(C)C)ccc1C(=O)N(C1CC1)C1CCc2[nH]ncc2C1 (stereo not shown) [Example 5, N-cyclopropyl-4-isopropoxy-2-methoxy-N-(4,5,6,7-tetrahydro-1H-indazol-5-yl)benzamide] | 
0.053 |  | O=C(c1ccc(-c2c(F)cncc2F)cc1)N(C1CC1)C1CCc2n[nH]cc2C1 (stereo not shown) [Example 228] | 
0.048 | > 30 | N#Cc1ccccc1-c1ccc(C(=O)N(C2CC2)C2CCc3[nH]ncc3C2)cc1 (stereo not shown) [Example 1, 2′-cyano-N-cyclopropyl-N-(4,5,6,7-tetrahydro-1H-indazol-5-yl)biphenyl-4-carboxamide] | 
0.043 |  | O=C(c1ccc(-c2c(F)cccc2F)cc1)N(C1CC1)C1CCc2[nH]ncc2C1 (stereo not shown) [Example 216] | 

From patent US9266840B2, “Bicyclic heterocyclic compound” (Astellas Pharma Inc., priority 2011, dated 2016)
